This is an account of results in patent publication US20100003217A1, “Compounds and Pharmaceutical Compositions for the Treatment of Viral Infections” (priority 2008, published 2010).

“And” between values parts separate entries of the source, which are not always exact repeats. Equal entries are not always repeated.

The data set has as its system rat primary hepatocytes. The data set is described as follows: Metabolic disposition of [^14C]-Compound 1 and [^14C]-2′-C-methyl guanosine in rat primary hepatocytes (incubation medium, cellular extracts, nucleotide levels). Format: in vitro ADME, Sprague Dawley rat. Here is the method:
Primary hepatocytes: Freshly isolated cells from animal and human liver were obtained in suspension on ice. Cells were pelleted by centrifugation at 70-75×g (rat) or 95-90×g (monkey and human) and resuspended at 0.8 million cells per mL of platting medium (William's E supplemented with 5% FBS, 0.5% penicillin-streptomycin, 1% L-glutamine, 4 μg/mL insulin and 1 μM dexamethasone). Multi-well collagen I-coated plates (rat tail collagen type I; 12- or 6-well) were then seeded by addition of 1 mL (12-well; 0.8 million cells/well) or 2 mL (6-well; 1.6 million cells/well) of cell suspension. The plates were gently shaken to evenly distribute the cells and placed in an incubator at 37° C. for approximately 4 to 6 hours to allow cells to attach. Once cells were attached, the platting medium was removed and replaced with hepatocyte culture medium (William's E supplemented with penicillin-streptomycin, 1% L-glutamine, 1% insulin-transferrin-selenium and 0.1 μM dexamethasone). Cells were left overnight in an incubator at 37° C. to acclimatize to culture and the medium.
Hepatocyte incubations with radiolabeled Compound 1 and 2′-C-methyl guanosine, both labeled in the C-8 position of the guanine moiety, were conducted at a final volume of 2.0 mL hepatocyte culture medium/well ([…]). Culture medium from overnight incubation of cells was removed and replaced with fresh medium, pre-warmed to 37° C., containing 1 or 10 μM [^14C]-Compound 1 ([…]) or [^14C]-2′-C-methyl guanosine (127 DPM/μmol) from a stock solution in DMSO (final DMSO concentration was 0.1%) or 50% ethanol (final ethanol concentration was 0.2%). After 1, 4, 8 and 24 hours, 0.5-1.0 mL of incubation medium was removed and stored at −20° C. until analysis (described below). The remaining medium was discarded and cell monolayers were carefully washed two times with ice-cold PBS. Following the last wash, all PBS was carefully removed and 1.0 mL of extraction solution (ice-cold 70% methanol) added. Cells were scrapped off and suspended in the extraction solution, transferred to 2 mL polypropylene microfuge tubes and intracellular contents extracted overnight at −20° C.
Preliminary identification of putative metabolites was conducted by comparing the retention time of observed metabolites in incubation medium and cellular extracts with retention times obtained with chemically synthesized standards using the chromatography conditions described below. Further identification of 2′-C-methyl guanosine nucleotides (mono-, di- and triphosphate) was carried out by incubating cellular extract samples with alkaline phosphatase (10 units for 60 min at 37° C.) and comparing the HPLC retention times of the resulting nucleosides with that of authentic 2′-C-methyl guanosine.
Cellular extracts were prepared by centrifugation at 16,000 RCF using an Eppendorf microcentrifuge (Eppendorf, Model 5415D) for 10 min to remove cellular debris. An aliquot of 5-10 μL of the supernatant was added to 5 mL of EcoLite™ (MP, Irvine, Calif.) liquid scintillation cocktail and radioactivity measured by liquid scintillation counting (LSC) using a Beckman Coulter LS6500 multipurpose liquid scintillation counter (Beckman Instruments, Fullerton, Calif.). The remaining sample was then dried using a Labconco refrigerated centrivap concentrator (Labconco, Kansas City, Mo.). Dry extracts were reconstituted in 120 μL of HPLC-grade water and centrifuged at 16,000 RCF using an Eppendorf microcentrifuge for 10 min. Prior to HPLC analysis (described below), radioactivity of the concentrated extracts was measured by LSC using 5 μL aliquots. Extraction recovery was then determined by comparing total radioactivity in extracts before and after drying. The remaining extract was then analyzed by HPLC with online radioactivity detection using a Flow Scintillation Analyzer Radiomatic™ 515TR. Radioactivity in the separated components was quantified by integrating the peaks using Flo-One™ Software (Perkin Elmer Life Sciences). […]

The mark [1] stands for this setting: rat hepatocytes (Rs448, Rs458), 10 μM [^14C]-Compound 1, 24 h.
Where [2] appears, read: rat hepatocytes (Rs458), 1 μM [^14C]-Compound 1, 1 h.
[3] abbreviates: rat hepatocytes (Rs458), 1 μM [^14C]-Compound 1, 8 h.
The mark [4] stands for this setting: rat hepatocytes (Rs458), 1 μM [^14C]-Compound 1, 24 h.
[5] abbreviates: rat hepatocytes (Rs448, Rs458), 10 μM [^14C]-Compound 1, 8 h.
The mark [6] stands for this setting: rat hepatocytes (Rs458), 1 μM [^14C]-Compound 1, 0 h.
Where [7] appears, read: rat hepatocytes (lots Rs448, Rs458), 10 μM [^14C]-Compound 1, 0 h.
Where [8] appears, read: rat hepatocytes (lots Rs448, Rs458), 10 μM [^14C]-Compound 1, 1 h.
[9] abbreviates: rat hepatocytes (lots Rs448, Rs458), 10 μM [^14C]-Compound 1, 4 h.
Setting [10] is: rat hepatocytes (lots Rs448, Rs458), 10 μM [^14C]-Compound 1, 8 h.
Setting [11] is: rat hepatocytes (lots Rs448, Rs458), 10 μM [^14C]-Compound 1, 24 h.

On to `CC(C)(CO)C(=O)SCCOP(=O)(NCc1ccccc1)OC[C@H]1O[C@@H](n2cnc3c(=O)[nH]c(N)nc32)[C@](C)(O)[C@@H]1O` (mixture of isomers) [Compound 1, 3-hydroxy-2,2-dimethyl-thiopropionic acid S-(2-{[(2R,3R,4R,5R)-5-(2-amino-6-oxo-1,6-dihydro-purin-9-yl)-3,4-dihydroxy-4-methyl-tetrahydro-furan-2-ylmethoxy]-benzylamino-phosphoryloxy}-ethyl) ester], for which the “metabolites observed in cellular extracts (% of total radioactivity)” value (rat hepatocytes (Rs448, Rs458), 10 μM [^14C]-Compound 1, 1 h, listed as Compd 1) is 15.0% and 19.7%; the “metabolites observed in cellular extracts (% of total radioactivity)” value (rat hepatocytes (Rs448, Rs458), 10 μM [^14C]-Compound 1, 4 h, listed as Compd 1) is 3.86% and 4.02%; the “metabolites observed in cellular extracts (% of total radioactivity)” value (rat hepatocytes (Rs448, Rs458), 10 μM [^14C]-Compound 1, 8 h, listed as Compd 1) is 1.20% and 0.95%; the “metabolites observed in cellular extracts (% of total radioactivity)” value under setting [1] is recorded as “undetected”; the “metabolites observed in cellular extracts (% of total radioactivity)” value (rat hepatocytes (Rs448, Rs458), 10 μM [^14C]-Compound 1, 24 h, listed as Compd 1) was “BLD”; the “metabolites observed in cellular extracts (% of total radioactivity)” value under setting [2] is 12.3%. The “metabolites observed in cellular extracts (% of total radioactivity)” value reads like this: under setting [3], “BLD”; under setting [4], “BLD”. Further, the “reduction in Compound 1 medium levels” value (rat hepatocytes, 1 μM, 8 hours) is “approximately 79%”. The “decrease in Compound 1 medium levels” value (rat hepatocytes, 10 μM, 4 hours) is given as approximately 50%. In addition, the “% Residual [^14C]-Compound 1 in incubation medium” value runs as follows: (rat primary hepatocytes (n=1), 1 μM, 0 h) 99%; (rat primary hepatocytes (n=1), 1 μM, 1 h) 89%; (rat primary hepatocytes (n=1), 1 μM, 8 h) 21%; (rat primary hepatocytes (n=1), 1 μM, 24 h) 0%; (rat primary hepatocytes (n=2), 10 μM, 0 h) 95% and 97%; (rat primary hepatocytes (n=2), 10 μM, 1 h) 91% and 93%. Further, the “% Residual [^14C]-Compound 1 in incubation medium” value is 48% and 55% (rat primary hepatocytes (n=2), 10 μM, 4 h); 18% and 32% (rat primary hepatocytes (n=2), 10 μM, 8 h); 0% (rat primary hepatocytes (n=2), 10 μM, 24 h).
Regarding `CC(C)(CO)C(=O)SCCOP(N)(=O)OC[C@H]1O[C@@H](n2cnc3c(=O)[nH]c(N)nc32)[C@](C)(O)[C@@H]1O` (mixture of isomers) [Compound 3, {9-[(2R)2-C-methyl-β-D-ribo-furanosyl]-guanin}-5′-yl-O-(hydroxy-tert-butyl-S-acyl-2-thioethyl) phosphoramidate], the “metabolites observed in cellular extracts (% of total radioactivity)” value under setting [5] is “BLD” and the “metabolites observed in cellular extracts (% of total radioactivity)” value under setting [1] is recorded as “BLD”. For the same compound, the “metabolites observed in medium (% of total radioactivity)” value is “BLD” under setting [6]; “BLD” under setting [2]; “BLD” under setting [3]; 1.7% and 1.71% under setting [4]; “BLD” under setting [7]; “BLD” under setting [8]. In addition, the “metabolites observed in medium (% of total radioactivity)” value reads like this: under setting [9], 0.9%; under setting [10], 1.4% and 2.1%; under setting [11], 1.4% and 1.7%.
On to `C[C@@]1(O)[C@H](O)[C@@H](CO)O[C@H]1n1cnc2c(=O)[nH]c(N)nc21` [2′-C-methyl guanosine, 9-(2-C-methyl-β-D-ribofuranosyl)guanine, reference compound], for which the “metabolites observed in cellular extracts (% of total radioactivity)” value is 1.84% and 1.75% (rat hepatocytes (Rs448, Rs458), 10 μM [^14C]-Compound 1, 1 h); 5.04% and 3.78% (rat hepatocytes (Rs448, Rs458), 10 μM [^14C]-Compound 1, 4 h); 8.77% and 4.95% under setting [5]; 14.7% and 16.9% under setting [1]; 1.01% under setting [2]; 5.58% under setting [3]. Also, the “metabolites observed in cellular extracts (% of total radioactivity)” value under setting [4] was determined as 13.1%. The “metabolites observed in medium (% of total radioactivity)” value is “BLD” under setting [6]; “BLD” under setting [2]; 29.4% under setting [3]; 58% and 58.3% under setting [4]; “BLD^b and BLD” under setting [7]; 0.8% and 0.5% under setting [8]. The “metabolites observed in medium (% of total radioactivity)” value reads like this: under setting [9], 17.5% and 10.1% and 17.0% and 10.0%; under setting [10], 41.5% and 23.4% and 41.0% and 23.0%; under setting [11], 67% and 68.5% and 65.3% and 69.0% and 65.0%. Further, the “Major metabolites observed in cellular extracts (% of total radioactivity)” value is, setting by setting: (rat hepatocytes Rs448, 10 μM [^14C]-2′-C-methyl guanosine, 1 h) 93.6 % of total radioactivity; (rat hepatocytes Rs448, 10 μM [^14C]-2′-C-methyl guanosine, 4 h) 78.6 % of total radioactivity; (rat hepatocytes Rs448, 10 μM [^14C]-2′-C-methyl guanosine, 8 h) 69.2 % of total radioactivity; (rat hepatocytes Rs448, 10 μM [^14C]-2′-C-methyl guanosine, 24 h) 51.5 % of total radioactivity; (rat hepatocytes Rs458, 1 μM [^14C]-2′-C-methyl guanosine, 1 h) 93.4 % of total radioactivity; (rat hepatocytes Rs458, 1 μM [^14C]-2′-C-methyl guanosine, 8 h) 68.7 % of total radioactivity. Besides, the “Major metabolites observed in cellular extracts (% of total radioactivity)” value runs as follows: (rat hepatocytes Rs458, 1 μM [^14C]-2′-C-methyl guanosine, 24 h) 49.2 % of total radioactivity; (rat hepatocytes Rs458, 10 μM [^14C]-2′-C-methyl guanosine, 1 h) 94.5 % of total radioactivity; (rat hepatocytes Rs458, 10 μM [^14C]-2′-C-methyl guanosine, 4 h) 79.8 % of total radioactivity; (rat hepatocytes Rs458, 10 μM [^14C]-2′-C-methyl guanosine, 8 h) 67.2 % of total radioactivity; (rat hepatocytes Rs458, 10 μM [^14C]-2′-C-methyl guanosine, 24 h) 47.1 % of total radioactivity.
